The source of these data is patent publication US11286228B2, “Stilbene derivative and method for preparing same” (Ozchela Inc., priority 2016, dated 2022).

In one data set the target is cyclophilin. Put plainly: Cis-trans isomerase inhibitory activity (chymotrypsin-coupled Suc-AAPF-pNA cleavage, absorbance 390 nm). Type of data set: biochemical. In a few lines:
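Cyclophilin isomerase activity coupled to chymotrypsin cleavage of Suc-AAPF-pNA: chymotrypsin cuts only the trans peptide, so isomerase-driven cis-to-trans conversion increases cleavage within a fixed period. Released product read by absorbance at 390 nm with compound present alongside cyclophilin.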

A short description of data set [1]: Cytotoxicity, MTT test in HCV replicon cells. The class given is cell-based. As to the method:
The cytotoxicity of the stilbene derivatives was measured. Replicon cells that stably replicate a hepatitis C virus genome were attached to a 96-well plate and cultured in a CO2 incubator at 37° C. for 24 hr. The replicon cells cultured for one day were washed with a phosphate buffered saline (PBS) solution, treated with the compounds of the present invention, and then cultured for 72 hr. Thereafter, through the MTT [3-(4,5-dimethylthiazol-2-yl)-2,5-diphenyltetrazolium bromide] cytotoxicity test, CC50 values of the compounds of the present invention were measured. The CC50 values of the compounds of the present invention were 200 μM or more.

In data set [2] the test system is mitochondria obtained from hepatocytes. Put plainly: Inhibitory activity on calcium-induced mitochondrial swelling (absorbance 520 nm). In a few lines: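 Mitochondria isolated from hepatocytes by Dounce disruption, 700×g clearing and 12,000×g pelleting. Swelling induced with calcium and followed as absorbance at 520 nm; activity expressed as IC50.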
The subject of a further data set is hepatitis C virus. Put plainly: Antiviral activity in HCV replicon cells (Renilla luciferase). The class given is cell-based. The settings on record: HCV replicon cells. Summed up:
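Replicon cells stably carrying the HCV genome, pre-cultured 24 h at 37 °C, treated with compound for 72 h, then lysed on ice. Renilla luciferase luminescence used as a measure of HCV genome level, expressed relative to DMSO-treated cells, from which EC50 was derived.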

Where [3] appears, read: cyclophilin, chymotrypsin, Suc-AAPF-pNA, read-out: Test Example 1: cis-trans isomerase inhibitory activity (IC50).
Where [4] appears, read: Hepatocyte, calcium-induced swelling of extracted mitochondria, read-out: Test Example 4: inhibiting mitochondrial swelling (IC50).
The mark [5] stands for this setting: Hepatitis C virus, 72 hr, Renilla luciferase, relative to DMSO, read-out: Test Example 3: antiviral activity (EC50).
Where [6] appears, read: read-out: Test Example 1: cis-trans isomerase inhibitory activity (IC50) group.
Where [7] appears, read: Hepatocyte, read-out: Test Example 4: activity on inhibiting mitochondrial swelling (IC50) group.
Setting [8] is: Hepatitis C virus, read-out: Test Example 3: antiviral activity (EC50) group.

Molecules are shown by their SMILES. Read-outs that look alike come from different tables or passages of the source.

As for `CCCCOC(=O)c1c(C=Cc2ccc(CC(C)(C)C)cc2)cccc1CC` [Compound 66], the IC50 lay in the range of 0.02 to 0.2 µM on cyclophilin (setting [3]) and 5 to 50 µM in data set [2] (setting [4]). The compound also returned a CC50 at 72 h in data set [1] of 245 µM. The 50% effective concentration (EC50) in the data set on hepatitis C virus (setting [5]) is 0.5 to 5 µM.
In the case of `CC(C)CCc1ccccc1C=C(C#N)c1ccc([N+](=O)[O-])cc1` [Compound 36], the 50% inhibitory concentration (IC50) at cyclophilin (setting [3]) was 0.02 to 0.2 µM; in data set [2] (setting [4]), 5 to 50 µM. Besides, the EC50 with hepatitis C virus (setting [5]) fell in the range of 0.5 to 5 µM.
The corresponding values for `CCCCOC(=O)c1cc(C)ccc1C=C(C)c1ccc(CC(C)(C)C)cc1` [Compound 85] are 0.02 to 0.2 µM, 5 to 50 µM and 0.5 to 5 µM.
For `CN(C)c1ccccc1C=C(C#N)c1ccc([N+](=O)[O-])cc1` [Compound 7], the 50% inhibitory concentration (IC50) at cyclophilin (setting [3]) is 0.2 to 2 µM; in data set [2] (setting [4]), 50 to 500 µM. Moreover, the EC50 in the data set on hepatitis C virus (setting [5]) lay within 5 to 50 µM.
The corresponding values for `Cc1ccc(CCc2ccccc2C=C(C#N)c2ccc([N+](=O)[O-])cc2)cc1` [Compound 52] are 0.02 to 0.2 µM, 5 to 50 µM and 0.5 to 5 µM.
As for `CCCCOC(=O)c1cccc(C(=O)OCCCC)c1C=Cc1ccc(CC(C)(C)C)cc1` [Compound 149], the IC50 lay in the range of 0.02 to 0.2 µM on cyclophilin (setting [6]) and 5 to 50 µM in data set [2] (setting [7]). The concentration giving a half-maximal response (EC50) with hepatitis C virus (setting [8]) was in the range of 0.5 to 5 µM.
Regarding `CCCCCc1ccc(C=Cc2ccccc2C(=O)OC)cc1` [Compound 130], the figures for the concentration for half-maximal inhibition (IC50) (at cyclophilin (setting [3]); in data set [2] (setting [4])) were no more than 0.02 µM and less than 5 µM, respectively. For the same compound, the half-maximal effective concentration (EC50) in the data set on hepatitis C virus (setting [5]) was less than 0.5 µM.
The corresponding values for `CCCCOC(=O)c1ncccc1C=Cc1ccc(CC(C)(C)C)cc1` [Compound 145] are 0.02 to 0.2 µM, 5 to 50 µM and 0.5 to 5 µM.
The corresponding values for `COc1ccccc1C=C(C#N)c1ccc(C)c(C)c1` [Compound 12] are 0.2 to 2 µM, 50 to 500 µM and 5 to 50 µM.
The corresponding values for `CC(=Cc1ccccc1C(=O)OCC1CCCCC1)c1ccc(CC(C)(C)C)cc1` [Compound 90] are 0.02 to 0.2 µM, 5 to 50 µM and 0.5 to 5 µM.
With `CCCCOC(=O)c1c(C=C(N)c2ccc(CC(C)(C)C)cc2)ccc(C)c1C` [Compound 102], the figures for the IC50 (at cyclophilin (setting [3]); in data set [2] (setting [4])) were 0.02 to 0.2 µM and 5 to 50 µM, respectively. For the same compound, in the data set on hepatitis C virus (setting [5]), the EC50 was 0.5 to 5 µM.
The corresponding values for `CC(C)(C)Cc1ccc(C=Cc2cccc(N)c2C(=O)O)cc1` [Compound 137] are no more than 0.02 µM, less than 5 µM and less than 0.5 µM.
For the compound `CCCCOC(=O)c1ccccc1C=C(N)c1ccc(CC(C)(C)C)cc1C` [Compound 100], the IC50 at cyclophilin (setting [3]) is 0.02 to 0.2 µM; in data set [2] (setting [4]) it was 5 to 50 µM. In the data set on hepatitis C virus (setting [5]), the EC50 lay within 0.5 to 5 µM.
The corresponding values for `CC(C)c1ccc(C(C#N)=Cc2ccccc2C(=O)O)cc1` [Compound 5] are 0.2 to 2 µM, 50 to 500 µM and 5 to 50 µM.
The corresponding values for `CCCCOC(=O)c1ccccc1C=Cc1ccc(CC(C)CC)cc1` (stereo not drawn) [Compound 78] are 0.02 to 0.2 µM, 5 to 50 µM and 0.5 to 5 µM.
With `CCCCOC(=O)c1ccccc1C=Cc1ccc(CC(C)(C)C)cc1` [Compound 64], the IC50 is no more than 0.02 µM at cyclophilin (setting [3]) and less than 5 µM in data set [2] (setting [4]). In data set [1], it took 320 µM to reach half-maximal cytotoxicity (CC50 at 72 h). Further, in the data set on hepatitis C virus (setting [5]), the EC50 was less than 0.5 µM.
In the case of `CCC(C)Cc1ccc(C=Cc2ccccc2C(=O)OC)cc1` (stereo not drawn) [Compound 125], the IC50 fell in the range of 0.02 to 0.2 µM on cyclophilin (setting [3]) and 5 to 50 µM in data set [2] (setting [4]). Further, the EC50 with hepatitis C virus (setting [5]) was in the range of 0.5 to 5 µM.
The corresponding values for `CCc1ccccc1C=C(C#N)c1ccc([N+](=O)[O-])cc1` [Compound 22] are 0.2 to 2 µM, 50 to 500 µM and 5 to 50 µM.
As to `CC(C)(C)Cc1ccc(C=Cc2cc(N)ccc2C(=O)O)cc1` [Compound 154], the IC50 on cyclophilin (setting [6]) fell in the range of 0.02 to 0.2 µM; in data set [2] (setting [7]), 5 to 50 µM. Moreover, in the data set with hepatitis C virus (setting [8]), the concentration for a half-maximal effect (EC50) fell in the range of 0.5 to 5 µM.
`CC(C)OC(=O)c1ccccc1C=C(N)c1ccc(CC(C)(C)C)cc1` [Compound 104]: the IC50 on cyclophilin (setting [3]) is 0.02 to 0.2 µM; in data set [2] (setting [4]) it was 5 to 50 µM. For the same compound, the EC50 in the data set with hepatitis C virus (setting [5]) is 0.5 to 5 µM.
The corresponding values for `CCCCOC(=O)c1ccccc1C=C(F)c1ccc(CC(C)(C)C)cc1` [Compound 112] are no more than 0.02 µM, less than 5 µM and less than 0.5 µM.
As to `N#CC(=Cc1ccccc1OCC1CC1)c1ccc([N+](=O)[O-])cc1` [Compound 27], the IC50 was 0.02 to 0.2 µM on cyclophilin (setting [3]) and 5 to 50 µM in data set [2] (calcium-induced swelling of extracted mitochondria, read-out: Test Example 4: inhibiting mitochondrial swelling (IC50)). Also, in the data set with hepatitis C virus (72 hr, Renilla luciferase, relative to DMSO, read-out: Test Example 3: antiviral activity (EC50)), the EC50 lay in the range of 0.5 to 5 µM.
As for `CC(C)(C)Cc1ccc(C=Cc2ccccc2C(=O)OC2CCCCC2)cc1` [Compound 77], the IC50 on cyclophilin (setting [3]) was 0.02 to 0.2 µM; in data set [2] (setting [4]) it was 5 to 50 µM. Besides, in the data set on hepatitis C virus (setting [5]), the EC50 lay in the range of 0.5 to 5 µM.
The corresponding values for `CC(=Cc1ccccc1C(=O)OC(C)C)c1ccc(CC(C)(C)C)cc1` [Compound 89] are 0.02 to 0.2 µM, 5 to 50 µM and 0.5 to 5 µM.
As for `CC(=Cc1ccccc1C(=O)OC1CCCCC1)c1ccc(CC(C)(C)C)cc1` [Compound 93], the IC50 was 0.02 to 0.2 µM on cyclophilin (setting [3]) and 5 to 50 µM in data set [2] (setting [4]). Also, the half-maximal effective concentration (EC50) in the data set on hepatitis C virus (setting [5]) is 0.5 to 5 µM.
As for `CCCCOC(=O)c1ccccc1C=C(C)c1ccc(CC(C)CC)cc1` (stereo not drawn) [Compound 94], the values for the half-inhibitory concentration (IC50) (on cyclophilin (setting [3]); in data set [2] (setting [4])) were 0.02 to 0.2 µM and 5 to 50 µM, respectively. The EC50 with hepatitis C virus (setting [5]) was in the range of 0.5 to 5 µM.
With `COc1ccccc1C=C(C#N)c1ccc(Cc2ccccc2)cc1` [Compound 20], the IC50 at cyclophilin (setting [3]) was no more than 0.02 µM; in data set [2] (setting [4]), less than 5 µM. Also, in the data set on hepatitis C virus (setting [5]), the EC50 was less than 0.5 µM.
The corresponding values for `CCC(C)Oc1ccccc1C=C(C#N)c1ccc([N+](=O)[O-])cc1` (stereo not drawn) [Compound 26] are 0.2 to 2 µM, 50 to 500 µM and 5 to 50 µM.
With `CC(C)c1ccc(C(C#N)=Cc2ccccc2Cl)cc1` [Compound 4], the IC50 on cyclophilin (setting [3]) was 0.2 to 2 µM; in data set [2] (setting [4]) it was 50 to 500 µM. In the data set on hepatitis C virus (setting [5]), the EC50 lay in the range of 5 to 50 µM.
Regarding `CCCCOC(=O)c1cccnc1C=Cc1ccc(CC(C)(C)C)cc1` [Compound 148], the IC50 fell in the range of 0.02 to 0.2 µM at cyclophilin (setting [6]) and 5 to 50 µM in data set [2] (read-out: Test Example 4: activity on inhibiting mitochondrial swelling (IC50) group). Also, in the data set with hepatitis C virus (read-out: Test Example 3: antiviral activity (EC50) group), the EC50 was in the range of 0.5 to 5 µM.
For the compound `N#CC(=Cc1ccccc1Cc1c(Cl)cccc1Cl)c1ccc([N+](=O)[O-])cc1` [Compound 37], the IC50 at cyclophilin (setting [3]) was in the range of 0.02 to 0.2 µM; in data set [2] (setting [4]), 5 to 50 µM. For the same compound, in the data set on hepatitis C virus (setting [5]), the concentration for a half-maximal effect (EC50) lay in the range of 0.5 to 5 µM.
The corresponding values for `N#CC(=Cc1ccccc1CCc1ccc(N)cc1)c1ccc([N+](=O)[O-])cc1` [Compound 53] are 0.02 to 0.2 µM, 5 to 50 µM and 0.5 to 5 µM.
The corresponding values for `CCCCOC(=O)c1ccccc1C=C(C)c1ccc(CC2CCCCC2)cc1` [Compound 96] are 0.02 to 0.2 µM, 5 to 50 µM and 0.5 to 5 µM.
Turning to `Cc1cccc(C(=O)O)c1C=Cc1ccc(CC(C)(C)C)cc1` [Compound 152], the IC50 on cyclophilin (setting [6]) was no more than 0.02 µM; in data set [2] (setting [7]), less than 5 µM. In addition, the EC50 with hepatitis C virus (setting [8]) is less than 0.5 µM.
For the compound `CC(C)(C)Cc1ccc(C(N)=Cc2ccccc2C(=O)OCc2ccccc2)cc1` [Compound 106], the IC50 is 0.02 to 0.2 µM on cyclophilin (setting [3]) and 5 to 50 µM in data set [2] (setting [4]). For the same compound, the EC50 in the data set on hepatitis C virus (setting [5]) fell in the range of 0.5 to 5 µM.
Take `CCCCOC(=O)c1c(C)cccc1C=Cc1ccc(CC(C)(C)C)cc1` [Compound 65]: the IC50 was in the range of 0.02 to 0.2 µM at cyclophilin (setting [3]) and 5 to 50 µM in data set [2] (setting [4]). Moreover, the midpoint of cytotoxicity in data set [1], the CC50 at 72 h, lay at 284 µM. The EC50 in the data set with hepatitis C virus (setting [5]) was in the range of 0.5 to 5 µM.
As for `N#CC(=Cc1ccccc1N1CCOCC1)c1ccc([N+](=O)[O-])cc1` [Compound 30], the IC50 lay in the range of 0.2 to 2 µM on cyclophilin (setting [3]) and 50 to 500 µM in data set [2] (setting [4]). Also, the EC50 in the data set with hepatitis C virus (setting [5]) fell in the range of 5 to 50 µM.
Turning to `CC(c1ccc(C(C#N)=Cc2ccccc2C(=O)O)cc1)C(C)(C)C` (stereo not drawn) [Compound 56], the 50% inhibitory concentration (IC50) on cyclophilin (setting [3]) fell in the range of 0.02 to 0.2 µM; in data set [2] (setting [4]), 5 to 50 µM. Further, in the data set with hepatitis C virus (setting [5]), the EC50 lay within 0.5 to 5 µM.
